In US20110182888A1, “Administration of an Inhibitor of HDAC, an Inhibitor of HER-2, and a Selective Estrogen Receptor Modulator” (priority 2008, published 2011):

How the values were obtained:
[1] = tested on: erbB2-overexpressing breast cancer cells; experiment: cell proliferation (MTS) assays, erbB2-overexpressing vs basal breast cancer cells; type: cell-based, human; conditions: MTS assay; erbB2-overexpressing breast cancer cells compared to basal cells
Source text: (§1) SNDX-275 had little effect on apoptosis induction and cell cycle progression in basal breast cancer MDA-MB-468, MDA-MB-231, and BT20 cells. […] Moreover, elevated expression of erbB3 via transfection with erbB3-containing expression vector abrogated SNDX-275-induced inactivation of the downstream signaling, apoptosis, and cell cycle arrest, whereas knockdown of erbB3 and/or erbB2 expression with specific shRNAs enhanced the efficacy of SNDX-275-induced inactivation of the downstream signaling, apoptosis, and cell cycle arrest in SKBR3 and BT474 cells.

[2] = tested on: basal breast cancer MDA-MB-468, MDA-MB-231, and BT20 cells; experiment: apoptosis induction and cell cycle progression in basal breast cancer cells; type: cell-based, human; conditions: MDA-MB-468, MDA-MB-231, BT20 cells
Source text: as §1

[3] = tested on: human breast cancer cells; conditions: through induction of TGFβ type II receptor or TRAIL expression, or degradation of DNMT1; cited from earlier work
[4] = tested on: SKBR3 and BT474 cells; experiment: erbB3 overexpression or erbB3/erbB2 shRNA knockdown and SNDX-275 response; type: cell-based, human
Source text: as §1

[5] = tested on: P-erbB3, P-erbB2, P-MAPK, P-Akt, erbB3 and erbB2 in SKBR3, BT474 and MDA-MB-453 cells; experiment: erbB receptor and downstream signaling levels upon SNDX-275 treatment; type: cell-based, human
Source text: as §1

[6] = tested on: erbB2-overexpressing SKBR3, BT474, and MDA-MB-453 cells; experiment: Apoptotic-ELISA, western blots on PARP cleavage and caspase-3, -8, -9 activation, flow cytometry in erbB2-overexpressing cells; type: cell-based, human; conditions: SNDX-275 5 μM; SKBR3, BT474, MDA-MB-453 cells
Source text: as §1

For `Nc1ccccc1NC(=O)c1ccc(CNC(=O)OCc2cccnc2)cc1` [SNDX-275, N-(2-aminophenyl)-4-(N-(pyridin-3-ylmethoxycarbonyl)aminomethyl)benzamide], the growth inhibition [1] is listed as “much stronger growth inhibition”, the “apoptosis induction and cell cycle progression” value [2] is listed as “little effect” and the proliferation and apoptosis [3] is listed as “inhibit proliferation and induce apoptosis”. The “efficacy of SNDX-275-induced inactivation of downstream signaling, apoptosis, and cell cycle arrest with erbB3 and/or erbB2 knockdown” value ([4]; specific shRNAs, SKBR3 and BT474 cells) was “enhanced”, the “SNDX-275-induced inactivation of downstream signaling, apoptosis, and cell cycle arrest with elevated erbB3 expression” value ([4]; transfection with erbB3-containing expression vector) was “abrogated” and the erbB2 receptor [5] was “lesser reduction”. For the same compound, the erbB3 protein [5] was “rapid decrease”, the “levels of P-erbB3, P-erbB2, P-MAPK, and P-Akt” value [5] was “significantly decreased” and the “apoptosis and cell cycle arrest” value [6] was “induced apoptosis and cell cycle G1 arrest”.
